Test results as given in paper PMC3726044 (Biochemistry, 2013).

How the values were obtained:
ChsE1-ChsE2 = ChsE1-ChsE2 (Mycobacterium tuberculosis, UniProt P71857+P71858)
[1] = molecular target: T1, ChsE2 (Rv3543c), tagless, expressed from the cistronic construct pigr5 (Mycobacterium tuberculosis H37Rv, UniProt P71858 1-387); assay: pull-down
T1 sequence: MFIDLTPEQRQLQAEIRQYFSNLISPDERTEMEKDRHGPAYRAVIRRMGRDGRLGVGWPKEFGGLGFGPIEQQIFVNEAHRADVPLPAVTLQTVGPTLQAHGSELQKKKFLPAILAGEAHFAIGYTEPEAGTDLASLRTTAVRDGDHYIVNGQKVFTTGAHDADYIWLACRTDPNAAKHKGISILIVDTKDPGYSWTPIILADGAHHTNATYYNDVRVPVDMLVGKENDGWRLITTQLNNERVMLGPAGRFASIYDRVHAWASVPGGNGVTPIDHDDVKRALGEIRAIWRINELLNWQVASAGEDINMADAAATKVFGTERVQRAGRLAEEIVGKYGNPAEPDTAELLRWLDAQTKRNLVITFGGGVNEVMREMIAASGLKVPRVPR

Molecule | LC/UV/MS of released flavin (m/z 786), UV-visible spectrum (ChsE1-ChsE2) | binding result [1]
Cc1cc2nc3c(=O)[nH]c(=O)nc-3n(C[C@H](O)[C@H](O)[C@H](O)COP(=O)(O)OP(=O)(O)OC[C@H]3O[C@@H](n4cnc5c(N)ncnc54)[C@H](O)[C@@H]3O)c2cc1C [FAD] | ChsE1-ChsE2 is isolated as a holoprotein with FAD cofactor | 
ChsE1 (Rv3544c), N-terminal His6 tagged, expressed from the cistronic construct pigr5 (enzyme) MDFDPTAEQQAVADVVTSVLERDISWEALVCGGVTALPVPERLGGDGVGLFEVGALLTEVGRHGAVTPALATLGLGVVPLLELASAEQQDRFLAGVAKGGVLTAALNEPGAALPDRPATSFVGGRLSGTKVGVGYAEQADWMLVTADNAVVVVSPTADGVRMVRTPTSNGSDEYVMTMDGVAVADCDILADVAAHRVNQLALAVMGAYADGLVAGALRLTADYVANRKQFGKPLSTFQTVAAQLAEVYIASRTIDLVAKSVIWRLAEDLDAGDDLGVLGYWVTSQAPPAMQICHHLHGGMGMDVTYPMHRYYSTIKDLTRLLGGPSHRLELLGARCSLT |  | binds
